Measurements from patent US8962691B2, “Retinoid replacements and opsin agonists and methods for the use thereof” (University of Washington, priority 2003, dated 2015).

How the values were obtained:
[1] = test system: Rpe65−/− mice; assay: Mouse flicker electroretinograms; format: in vivo
Protocol: Mice were dark-reared from birth and anesthetized (ketaject/xylaject, 65 mg/kg intraperitoneally), and the pupils were dilated with tropicamide (1%). […] The mice were placed in a Ganzfield chamber, and flicker recordings were obtained from one eye.

[2] = molecular target: T1, phosphorylated opsin (Mus musculus, UniProt P15409); assay: Immunocytochemistry with anti-phosphorylated Rh antibody; format: in vivo; conditions: gavaged once at PND 30, analyzed 48 hours post-treatment, dark
T1 construct: The retinas from Rpe65+/+ mice and Rpe65−/− mice were fixed in constant darkness; from tissue; host or cells: retina sections of Rpe65-/- and Rpe65+/+ mice (in vivo dosing)
T1 sequence (P15409 whole entry): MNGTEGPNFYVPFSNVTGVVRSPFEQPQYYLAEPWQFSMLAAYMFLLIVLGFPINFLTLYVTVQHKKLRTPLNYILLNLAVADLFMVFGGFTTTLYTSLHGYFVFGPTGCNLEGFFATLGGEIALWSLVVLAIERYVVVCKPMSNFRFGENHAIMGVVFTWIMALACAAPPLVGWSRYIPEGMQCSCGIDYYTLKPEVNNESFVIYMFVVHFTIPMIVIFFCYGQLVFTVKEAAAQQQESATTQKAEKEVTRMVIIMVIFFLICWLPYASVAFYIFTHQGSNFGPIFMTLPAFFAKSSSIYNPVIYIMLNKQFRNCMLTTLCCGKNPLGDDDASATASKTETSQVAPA
Protocol: Rpe65 mice were divided into five groups: Rpe65−/−, Rpe65−/− that were gavaged with 9-cis-retinal and kept in the dark; Rpe65−/− that were gavaged with 9-cis-retinal, exposed to a flash, and kept in the dark for 15 min; Rpe65+/+ that were kept in the dark; and Rpe65+/+ that were exposed to a flash and kept in the dark for 15 minutes. For the flash studies, dark-adapted mice were subjected to a flash (Sunpak 433D, 1 ms) from a distance of 2 cm. The retinas were fixed in 4% paraformalydehyde in 0.13 M sodium phosphate, pH 7.4, for 15 hours at 4° C., and the tissues were transferred to 5, 10, or 15% sucrose in 0.13 M sodium phosphate, pH 7.4, for 30 minutes each time and stored overnight in 20% sucrose in the same buffer at 4° C. The tissue was then transferred to optimal cutting temperature cryoembedding compound and sectioned at 10 μm. The cryosections were incubated overnight at 4° C. in mouse monoclonal anti-phosphorylated Rh A11-82P antibody diluted 1:10. Triton X-100 (0.1%) was included in all phosphate-buffered saline solutions to facilitate antibody penetration. The controls were processed by omitting primary antibodies from the incubation buffer. After incubation in primary antibodies, the sections were rinsed with phosphate-buffered saline and then incubated with indocarbocyanine (Cy3)-conjugated goat anti-mouse IgG (1:200). […]

CC1=C(/C=C/C(C)=C\C=C\C(C)=C\C=O)C(C)(C)CCC1 [9-cis-retinal]
time rod retinal function is supported post-treatment ([1]; early intervention, Rpe65−/− mice): more than 6 months | gain in ERG sensitivity over untreated mice ([1]; eight weeks after single 2.5 mg): 2.1 logarithmic units | flicker ERG peak amplitude ([1]; eight weeks after single 2.5 mg, at 0.059 cd·s/m^2): 137.3±24.4 μV | flicker ERG peak amplitude ([1]; eight weeks after single 2.5 mg, at 13 cd·s/m^2): 40.0±7.1 μV | persistence of partial recovery of ERG sensitivity ([1]; treated once at PND 30): more than 12 weeks | ROS labeling by antibody against phosphorylated opsin [2]: abolished
